# Laboratory results from patent publication US20010051630A1, “Use of hydroxylamine derivatives, and method and preparations for increasing the tolerance of field crops against weather stresses” (priority 1997, published 2001).
# Marks after values point to notes of the source that are not given here.
# Tests used:
# bean plants (cv. Seaway) = test: Drought tolerance of beans, part b (7 days hardening); type: in vivo; conditions: 7 days without water, 10 mg/liter and 100 mg/liter solution named, table does not say which
# Excerpt: Based on the experiences of our preliminary experiments, the plants were hardened before the application of the active agent by withholding the water for a few days, until the first signs of withering appeared. Then the plants were watered and the active agent was either dissolved in the water, or sprayed to the plants directly. Afterwards, the plants were subjected to different periods of drought according to the given experiment, watered again, and after a week-long regeneration period, the survival ratio was determined.
# b) In this experiment, bean plants (cv. Seaway) were hardened for 7 days instead of the 5 days described in Part a. Then a 10 mg/liter and 100 mg/liter concentration solution of the active agent was applied two times a day for two days. Then 7 days without water followed, and after a week-long regeneration period, the results of the experiment were evaluated.
# HMv09 inbred maize line = test: CSVT, seeds soaked in active agent, HMv09 maize; type: in vivo; conditions: seeds soaked in 10 mg/l active agent
# Procedure: (§1) In this experiment the tolerance of maize, soybean and pepper seeds treated with the active agent against cold was tested. This test imposed temperature and oxygen deficiency stresses on the seeds and was carried out according to Barla-Szabó and Dolinka CSVT (Complex Stressing Vigour Test). For a single test, two hundred seeds were soaked for 48 hours at 25° C. and another 48 hours at 5° C in 150 ml distilled water containing the active agent in 10 mg/l concentration. Following the 96 hours of soaking, the seeds were further germinated between rolled wet paper for 96 hours at 25° C. There were 25 seeds in each roll, the rolls were placed vertically into containers and covered with a plastic bag in order to reduce evaporation. During the whole procedure the seeds were kept in darkness. At the end of the experiment the number of normally developing and ungerminated seeds were recorded. The length of the normal seedlings was measured and the average length of the five longest seedlings was calculated. Seedlings longer than 0.33 times the average length of the five longest seedlings were considered to be of high vigour, and low vigour seedlings were shorter than this length.
# McCall soybeans = test: CSVT, McCall soybeans; type: in vivo, soybean
# Procedure: as §1, with “darkness.” for “darkness. At the end of the experiment the number of normally developing and ungerminated seeds were recorded. The length of the normal seedlings was measured and the average length of the five longest seedlings was calculated. Seedlings longer than 0.33 times the average length of the five longest seedlings were considered to be of high vigour, and low vigour seedlings were shorter than this length.”
# (§2) At the end of the experiment the number of normally developing and ungerminated seeds were recorded. The length of the normal seedlings was measured and the average length of the five longest seedlings was calculated. Seedlings longer than 0.33 times the average length of the five longest seedlings were considered to be of high vigour, and low vigour seedlings were shorter than this length.
# When applying the CSVT test, the following results were obtained (Table 4.).
# [1] = test system: maize of high chilling tolerance (HT) population; test: CSVT, maize population of high chilling tolerance (HT); type: in vivo
# Procedure: as §1, with “darkness.” for “darkness. At the end of the experiment the number of normally developing and ungerminated seeds were recorded. The length of the normal seedlings was measured and the average length of the five longest seedlings was calculated. Seedlings longer than 0.33 times the average length of the five longest seedlings were considered to be of high vigour, and low vigour seedlings were shorter than this length.”
# as §2
# (§3) In the case of a further experiment with maize of low chilling tolerance (LT) and high chilling tolerance (HT) populations [Ref: P. Landi, E. Frascaroli, A. Lovato; EUPHYTICA 64 21-29 (1992)], the following positive effects were found (Table 3.).
# green peppers = test: CSVT, green peppers; type: in vivo, pepper
# Procedure: as §1, with “darkness.” for “darkness. At the end of the experiment the number of normally developing and ungerminated seeds were recorded. The length of the normal seedlings was measured and the average length of the five longest seedlings was calculated. Seedlings longer than 0.33 times the average length of the five longest seedlings were considered to be of high vigour, and low vigour seedlings were shorter than this length.”
# as §2
# Under the circumstances of the CSVT test, they increased the length of the sprouts and the roots along with the proportion of the high vigour seedlings. […]
# bean cv. Seaway = test: Frost tolerance of beans; type: in vivo; conditions: watering, 10 mg/l; −2° C. for 8 hours
# Procedure: Seedlings of bean cv. Seaway were cultivated under normal conditions for the first two weeks, then they were treated with 10 mg/liter and 100 mg/liter concentration solutions of the examined active agents 2 and 1 days before the initiation of the frost tolerance experiments. In the experiment, the plants were kept at −2° C. for 8 hours, then grew under normal conditions for I week, and the survival ratio was determined. 4 trays were used for each experiment and 6 seeds were planted in each tray.
# Mo 17 inbred maize line = test: CSVT (Complex Stressing Vigour Test), seeds soaked in active agent, Mo 17 maize; type: in vivo; conditions: seeds soaked in 10 mg/l active agent, * = significant vs control P < 0.05
# Procedure: as §1
# Soybean seeds = test: Pearling of soybean seeds, then CSVT; type: in vivo
# Procedure: as §1, with “darkness.” for “darkness. At the end of the experiment the number of normally developing and ungerminated seeds were recorded. The length of the normal seedlings was measured and the average length of the five longest seedlings was calculated. Seedlings longer than 0.33 times the average length of the five longest seedlings were considered to be of high vigour, and low vigour seedlings were shorter than this length.”
# as §2
# Soybean seeds are treated with a pearling agent, which contains 1 mg/ml of N-[3-(1-piperidinyl)propoxy]-3-nitro-benzimidoyl-chloride monohydrochloride (Compound 3) in a 5% aqueous polyvinylalcohol solution. 100 seeds and 1 ml of pearling agent are filled into a glass vessel and while the vessel is rotated, the seeds are coated with the agent and then it is left to dry. For seeds treated this way, we obtained the following results when placed under the conditions of the CSVT test described in Example 7.
# soybean cv. Bólyi 44 = test: Drought tolerance of soybeans; type: in vivo; conditions: 6 days hardening; 50 mg/liter in the water; 4 days without watering, one week regeneration
# Procedure: Soybeans of soybean cv. Bólyi 44 were hardened for 6 days by withholding the water. This was followed by two days of watering, and the active agent was applied in the water. The concentration of the solution of the active agent was 50 mg/liter. After a 4-day-long cease of watering and a one week regeneration period, the number of surviving plants was recorded.
# Watering was ceased for 10 days for a certain group of plants in the experiment. It was observed that almost every plant perished. Each of the 4 surviving plants had previously been treated with the active agent.
# [2] = test system: maize of low chilling tolerance (LT) population; test: CSVT, maize population of low chilling tolerance (LT); type: in vivo
# Procedure: as §1, with “darkness.” for “darkness. At the end of the experiment the number of normally developing and ungerminated seeds were recorded. The length of the normal seedlings was measured and the average length of the five longest seedlings was calculated. Seedlings longer than 0.33 times the average length of the five longest seedlings were considered to be of high vigour, and low vigour seedlings were shorter than this length.”
# as §2, §3
# [3] = 100 seeds pearled with 1 ml of 1 mg/ml in 5% PVA
smiles,measurement,setting,value
"Cl.O=[N+]([O-])c1cccc(C(Cl)=NOCCCN2CCCCC2)c1 [Compound 3, N-[3-(1-piperidinyl)propoxy]-3-nitro-benzimidoyl-chloride monohydrochloride]",Survival (%),bean plants (cv. Seaway),39* %
same,Ratio of high vigour plants (%),HMv09 inbred maize line,40* %
same,Ratio of high vigour plants (%),McCall soybeans,46* %
same,"Ratio of high vigour plants %, HT",[1],94* %
same,Ratio of high vigour plants (%),green peppers,45* %
same,Survival (%),bean cv. Seaway,40* %
same,Ratio of high vigour plants (%),Mo 17 inbred maize line,28* %
same,"Ratio of high vigour plants (%), root",Soybean seeds; [3],58* %
same,"Ratio of high vigour plants (%), sprout",Soybean seeds; [3],63* %
same,effect on ratio of high vigour plants and length of sprouts and roots,Soybean seeds; PVA solution containing Compound 3 as pearling agent,increase the ratio of high vigour plants significantly
same,Survival (%),soybean cv. Bólyi 44,33* %
same,"Ratio of high vigour plants %, LT",[2],88* %
